This assay addresses T1, Siglec-6 (Homo sapiens, UniProt O43699).
T1 construct: gene SIGLEC6; captured on CM5 chip
Description: surface plasmon resonance (Biacore T200). Type of assay: binding. From the text:
surface plasmon resonance (Biacore T200) on Siglec-6 | The binding affinity between caffeine and Siglec-6 protein is with a calculated KD of […]

T1 sequence (O43699 27-347 limits assumed): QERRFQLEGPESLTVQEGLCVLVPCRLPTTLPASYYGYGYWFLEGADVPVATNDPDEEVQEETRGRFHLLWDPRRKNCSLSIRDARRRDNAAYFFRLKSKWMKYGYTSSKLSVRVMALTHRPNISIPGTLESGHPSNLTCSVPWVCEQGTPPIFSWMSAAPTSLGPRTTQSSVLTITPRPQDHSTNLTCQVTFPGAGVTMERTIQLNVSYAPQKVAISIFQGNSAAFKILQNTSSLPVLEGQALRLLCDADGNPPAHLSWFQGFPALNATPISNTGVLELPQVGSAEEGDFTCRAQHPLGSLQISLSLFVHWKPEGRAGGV

Turning to `Cn1c(=O)c2c(ncn2C)n(C)c1=O` [caffeine], binding was put at a Kd of 0.176 µM.

Source of the values: article PMC12413947, “Caffeine Acts as an Agonist of Siglec-6, Inhibits MRGPRX2-Triggered Mast Cell Degranulation and Anaphylactoid Reactions” (Mediators of Inflammation, 2025).
